Source: article PMC3825844 (Analytical biochemistry, 2013)

How the values were obtained:
[1] = test system: PXR-SRC (steroid receptor coactivator) tethered protein; details: read-out: hypothetical Kd, circular dichroism; cited from earlier work
[2] = test system: PXR protein (without SRC); details: affinity selection-mass spectrometry; cited from earlier work
[3] = Solubility observed in TR-FRET assay dilution series; type: physicochemical; details: at 100 μM, TR-FRET assay buffer, […] DMSO

Structure (SMILES)	Kd [1] [nM]	Kd [2] [nM]	solubility in assay [3]
CO[C@H]1/C=C/O[C@@]2(C)Oc3c(C)c(O)c4c(O)c(c(/C=N/N5CCN(C)CC5)c(O)c4c3C2=O)NC(=O)/C(C)=C\C=C\[C@H](C)[C@H](O)[C@@H](C)[C@@H](O)[C@@H](C)[C@H](OC(C)=O)[C@@H]1C [Rifampicin, 3-(4-methylpiperazinyliminomethyl)rifamycin SV]	540	[…]	
Clc1ccccc1C(c1ccccc1)(c1ccccc1)n1ccnc1 [Clotrimazole, 1-[(2-chlorophenyl)diphenylmethyl]-1H-imidazole]	290	330	incomplete solubility
